Results on 21 compounds are retold here after patent US7517884B2 (Kalypsys Inc., priority 1998, dated 2009).

Holding throughout (format): cell-based, murine and human
Conditions in all cases: GAL4-PPAR LBD chimera

In one experiment the target is T1, PPAR-alpha (UniProt Q07869).
T1 sequence (Q07869 1-468): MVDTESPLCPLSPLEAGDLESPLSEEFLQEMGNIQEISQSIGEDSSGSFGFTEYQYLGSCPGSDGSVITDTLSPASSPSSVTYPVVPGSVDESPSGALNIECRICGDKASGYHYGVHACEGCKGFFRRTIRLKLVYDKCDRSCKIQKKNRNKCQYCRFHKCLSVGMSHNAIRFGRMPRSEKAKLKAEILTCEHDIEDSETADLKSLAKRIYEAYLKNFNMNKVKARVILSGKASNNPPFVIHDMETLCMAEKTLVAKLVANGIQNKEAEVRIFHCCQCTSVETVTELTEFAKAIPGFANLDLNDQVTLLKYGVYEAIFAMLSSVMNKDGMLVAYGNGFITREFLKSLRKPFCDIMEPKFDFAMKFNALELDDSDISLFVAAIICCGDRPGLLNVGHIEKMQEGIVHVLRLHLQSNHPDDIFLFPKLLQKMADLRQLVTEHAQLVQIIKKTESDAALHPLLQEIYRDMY
In words: PPAR-alpha transactivation assay (GAL4 chimera, luciferase reporter) in CV-1 cells. The essentials:
(§1)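 CV-1 cells transiently transfected with murine or human PPAR-alpha, -gamma or -delta ligand-binding domain fused to GAL4 DNA-binding domain plus a GAL4-site luciferase reporter. After replating in phenol-red-free DME with 5% delipidated calf serum, cells were exposed to compound 20-24 h; luciferase read-out gave EC50.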

Another experiment has as its target T2, PPAR-delta (UniProt Q03181).
T2 sequence (Q03181 1-441): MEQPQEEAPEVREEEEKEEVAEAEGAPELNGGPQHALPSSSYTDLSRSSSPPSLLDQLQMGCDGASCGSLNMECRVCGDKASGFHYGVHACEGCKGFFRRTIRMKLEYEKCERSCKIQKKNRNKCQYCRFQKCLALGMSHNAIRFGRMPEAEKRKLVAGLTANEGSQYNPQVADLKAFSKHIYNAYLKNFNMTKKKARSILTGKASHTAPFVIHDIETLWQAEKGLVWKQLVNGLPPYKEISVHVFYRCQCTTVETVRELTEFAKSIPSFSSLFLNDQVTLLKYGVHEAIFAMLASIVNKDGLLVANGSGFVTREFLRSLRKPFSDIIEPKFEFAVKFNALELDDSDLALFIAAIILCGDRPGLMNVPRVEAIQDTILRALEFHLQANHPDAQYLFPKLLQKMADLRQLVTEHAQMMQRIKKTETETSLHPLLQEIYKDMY
In words: PPAR-delta transactivation assay (GAL4 chimera, luciferase reporter) in CV-1 cells. The essentials:
as §1
A general note: Reporter assays use an easily measured gene product as a stand-in for the process of interest.

The target of another experiment is T3, PPAR-gamma (UniProt P37231).
T3 sequence (P37231 1-505): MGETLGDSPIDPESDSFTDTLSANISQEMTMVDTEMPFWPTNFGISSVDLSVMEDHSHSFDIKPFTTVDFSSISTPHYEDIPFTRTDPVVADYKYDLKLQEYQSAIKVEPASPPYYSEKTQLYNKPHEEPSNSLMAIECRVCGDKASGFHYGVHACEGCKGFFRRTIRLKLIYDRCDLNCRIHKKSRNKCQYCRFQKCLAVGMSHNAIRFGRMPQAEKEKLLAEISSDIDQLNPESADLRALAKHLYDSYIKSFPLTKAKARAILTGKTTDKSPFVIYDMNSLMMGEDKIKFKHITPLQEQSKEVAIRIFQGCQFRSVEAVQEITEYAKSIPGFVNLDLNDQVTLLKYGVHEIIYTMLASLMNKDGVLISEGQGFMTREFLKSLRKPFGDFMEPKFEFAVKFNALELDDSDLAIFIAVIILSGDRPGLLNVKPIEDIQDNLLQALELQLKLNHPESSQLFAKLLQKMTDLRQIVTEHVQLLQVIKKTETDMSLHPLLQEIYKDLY
In words: PPAR-gamma transactivation assay (GAL4 chimera, luciferase reporter) in CV-1 cells. The essentials:
as §1

A value given as a limit tells only on which side of the number the result lay.

As usually defined, the EC50 is the concentration at which the effect is half-maximal. Read a low EC50 as higher potency in that assay. On to `Cc1cc(N2C[C@@H](C)N(S(=O)(=O)c3ccc4c(c3)C(C(=O)O)CC4)[C@@H](C)C2)ccc1OC(F)F` (stereo partly drawn) [Example 85, 6-[4-(4-difluoromethoxy-3-methyl-phenyl)-2,6-dimethyl-piperazine-1-sulfonyl]-indan-1-carboxylic acid], for which the values for the concentration giving a half-maximal response (EC50) on PPAR-alpha, at PPAR-delta and on PPAR-gamma were 5 to 100 µM, less than 5 µM and 5 to 100 µM, respectively.
Take `C[C@@H]1CN(c2ccc(OC(F)(F)F)cc2)C[C@H](C)N1S(=O)(=O)c1ccc2ccn(CC(=O)O)c2c1` [Example 88, {6-[cis-2,6-Dimethyl-4-(4-trifluoromethoxy-phenyl)-piperazine-1-sulfonyl]-indol-1-yl}-acetic acid]: the EC50 on PPAR-alpha is greater than 100 µM; on PPAR-delta, less than 5 µM; at PPAR-gamma, 5 to 100 µM.
The like results for `O=C(O)C1Cc2cccc(S(=O)(=O)N3CCN(c4ccc(OC(F)(F)F)cn4)CC3)c2C1` (stereo not drawn) [Example 89, 4-[4-(5-Trifluoromethoxy-pyridin-2-yl)-piperazine-1-sulfonyl]-indan-2-carboxylic acid] were, in that order, less than 5 µM, less than 5 µM and less than 5 µM.
The like results for `O=C(O)Cn1ccc2ccc(S(=O)(=O)N3CCN(c4ccc(OC(F)(F)F)cc4)CC3)cc21` [Example 90, {6-[4-(4-Trifluoromethoxy-phenyl)-piperazine-1-sulfonyl]-indol-1-yl}-acetic acid] were, in that order, 5 to 100 µM, less than 5 µM and 5 to 100 µM.
The like results for `O=C(O)CN1CCc2ccc(S(=O)(=O)N3CCN(c4ccc(OC(F)(F)F)cc4)CC3)cc21` [Example 91, {6-[4-(4-trifluoromethoxy-phenyl)-piperazine-1-sulfonyl]-2,3-dihydro-indol-1-yl}-acetic acid] were, in that order, 5 to 100 µM, less than 5 µM and less than 5 µM.
With `O=C(O)C1Cc2cccc(S(=O)(=O)N3CCN(c4ccc(Cl)cc4)CC3)c2C1` (stereo not drawn) [Example 92, 4-[4-(4-chloro-phenyl)-piperazine-1-sulfonyl]-indan-2-carboxylic acid], the EC50 at PPAR-alpha is 5 to 100 µM; at PPAR-delta, less than 5 µM; at PPAR-gamma, 5 to 100 µM.
`C[C@H]1CN(c2ccc(OC(F)(F)F)cc2)CCN1S(=O)(=O)c1cccc2c1CC(C(=O)O)C2` (stereo partly drawn) [Example 93, 4-[2-(S)-Methyl-4-(4-trifluoromethoxy-phenyl)-piperazine-1-sulfonyl]-indan-2-carboxylic acid]: the half-maximal effective concentration (EC50) at PPAR-alpha is 5 to 100 µM; at PPAR-delta, less than 5 µM; at PPAR-gamma it was 5 to 100 µM.
Consider `C[C@H]1CN(c2ccc(C(F)(F)F)cn2)CCN1S(=O)(=O)c1cccc2c1CC(C(=O)O)C2` (stereo partly drawn) [Example 94, 4-[2-(S)-Methyl-4-(5-trifluoromethyl-pyridin-2-yl)-piperazine-1-sulfonyl]-indan-2-carboxylic acid], for which the EC50 on PPAR-alpha is 5 to 100 µM; on PPAR-delta it was less than 5 µM; at PPAR-gamma, 5 to 100 µM.
In the case of `C[C@@H]1CN(Cc2ccc(OC(F)(F)F)cc2)C[C@H](C)N1S(=O)(=O)c1cccc2c1CC(C(=O)O)C2` (stereo partly drawn) [Example 95, 4-[cis-2,6-dimethyl-4-(4-trifluoromethoxyl-benzyl)-piperazine-1-sulfonyl]-indan-2-carboxylic acid], the EC50 at PPAR-alpha is 5 to 100 µM; at PPAR-delta, less than 5 µM; on PPAR-gamma it was 5 to 100 µM.
For the compound `C[C@@H]1CN(Cc2ccc(C(F)(F)F)cc2)C[C@H](C)N1S(=O)(=O)c1cccc2c1CC(C(=O)O)C2` (stereo partly drawn) [Example 96, 4-[cis-2,6-dimethyl-4-(4-trifluoromethyl-benzyl)-piperazine-1-sulfonyl]-indan-2-carboxylic acid], the EC50 on PPAR-alpha is greater than 100 µM; on PPAR-delta it was less than 5 µM; at PPAR-gamma, 5 to 100 µM.
In the same order, the values of `O=C(O)C1Cc2cccc(S(=O)(=O)N3CCN(Cc4ccc(C(F)(F)F)cc4)CC3)c2C1` (stereo not drawn) [Example 97, 4-[4-(4-trifluoromethyl-benzyl)-piperazine-1-sulfonyl]-indan-2-carboxylic acid] are 5 to 100 µM, less than 5 µM and 5 to 100 µM.
Turning to `O=C(O)C1Cc2cccc(S(=O)(=O)N3CCN(Cc4ccc(OC(F)(F)F)cc4)CC3)c2C1` (stereo not drawn) [Example 98, 4-[4-(4-trifluoromethoxy-benzyl)-piperazine-1-sulfonyl]-indan-2-carboxylic acid], the figures for the EC50 at PPAR-alpha, on PPAR-delta and at PPAR-gamma were 5 to 100 µM, less than 5 µM and less than 5 µM, respectively.
For `C[C@@H]1CN(c2ccc(OC(F)(F)F)cn2)C[C@H](C)N1S(=O)(=O)c1cccc2c1CC(C(=O)O)C2` (stereo partly drawn) [Example 99], the figures for the EC50 at PPAR-alpha, on PPAR-delta and on PPAR-gamma were 5 to 100 µM, less than 5 µM and 5 to 100 µM, respectively.
On to `C[C@@H]1CN(c2ccc(OC(F)(F)F)cc2)C[C@H](C)N1S(=O)(=O)c1ccc2scc(CC(=O)O)c2c1` [Example 100, {5-[cis-2,6-dimethyl-4-(4-trifluoromethoxy-phenyl)-piperazine-1-sulfonyl]-benzo[b]thiophen-3-yl}-acetic acid], for which the EC50 on PPAR-alpha is 5 to 100 µM; at PPAR-delta it was less than 5 µM; at PPAR-gamma it was 5 to 100 µM.
With `C[C@@H]1CN(c2ccc(SC(F)(F)F)cc2)C[C@H](C)N1S(=O)(=O)c1cccc2c1CC(C(=O)O)C2` (stereo partly drawn) [Example 101, 4-[cis-2,6-dimethyl-4-(4-trifluoromethylsulfanyl-phenyl)-piperazine-1-sulfonyl]-indan-2-carboxylic acid], the concentration for a half-maximal effect (EC50) at PPAR-alpha was 5 to 100 µM; on PPAR-delta, less than 5 µM; on PPAR-gamma, 5 to 100 µM.
For `O=C(O)C1Cc2cccc(S(=O)(=O)N3CCN(c4ccc(OC(F)(F)F)cc4)CC3)c2C1` (stereo not drawn) [Example 102, 4-[4-(-trifluoromethoxy-phenyl)-piperazine-1-sulfonyl]-indan-2-carboxylic acid], the concentration for a half-maximal effect (EC50) at PPAR-alpha, on PPAR-delta and on PPAR-gamma was less than 5 µM each time.
On to `C[C@@H]1CN(c2ccc(Cl)cc2Cl)C[C@H](C)N1S(=O)(=O)c1ccc2c(c1)C(C(=O)O)CC2` (stereo partly drawn) [Example 103, 6-[4-(2,4-dichloro-phenyl)-cis-2,6-dimethyl-piperazine-1-sulfonyl]-indan-1-carboxylic acid], for which the EC50 at PPAR-alpha is 5 to 100 µM; on PPAR-delta, less than 5 µM; on PPAR-gamma, 5 to 100 µM.
`C[C@@H]1CN(c2ccc(C(F)(F)F)cc2)C[C@H](C)N1S(=O)(=O)c1ccc2c(c1)C(C(=O)O)CC2` (stereo partly drawn) [Example 104, 6-[cis-2,6-dimethyl-4-(4-trifluoromethyl-phenyl)-piperazine-1-sulfonyl]-indan-1-carboxylic acid]: the EC50 was less than 5 µM on PPAR-alpha, less than 5 µM at PPAR-delta and 5 to 100 µM on PPAR-gamma.
`C[C@@H]1CN(c2ccc(C(F)(F)F)cc2)C[C@H](C)N1S(=O)(=O)c1cccc2c1CC(C(=O)O)C2` (stereo partly drawn) [Example 105, 4-[cis-2,6-Dimethyl-4-(4-trifluoromethyl-phenyl)-piperazine-1-sulfonyl]-indan-2-carboxylic acid]: the 50% effective concentration (EC50) at PPAR-alpha is 5 to 100 µM; at PPAR-delta, less than 5 µM; at PPAR-gamma it was 5 to 100 µM.
As to `C[C@@H]1CN(c2ccc(C(C)(C)C)cc2)C[C@H](C)N1S(=O)(=O)c1cccc2c1CC(C(=O)O)C2` (stereo partly drawn) [Example 106, 4-[4-(4-tert-butyl-phenyl)-cis-2,6-dimethyl-piperazine-1-sulfonyl]-indan-2-carboxylic acid], the EC50 on PPAR-alpha is 5 to 100 µM; at PPAR-delta it was less than 5 µM; at PPAR-gamma, 5 to 100 µM.
Regarding `C[C@@H]1CN(c2cc(Cl)c(C(F)(F)F)cn2)C[C@H](C)N1S(=O)(=O)c1cccc2c1CC(C(=O)O)C2` (stereo partly drawn) [Example 107, 4-[4-(4-Chloro-5-trifluoromethyl-pyridin-2-yl)-cis-2,6-dimethylpiperazine-1-sulfonyl]-indan-2-carboxylic acid], the half-maximal effective concentration (EC50) on PPAR-alpha was greater than 100 µM; on PPAR-delta, less than 5 µM; on PPAR-gamma, greater than 100 µM.
